Assay results reported in US10780081B2, “Method of treating multiple sclerosis employing a LSD1-inhibitor” (ORYZON GENOMICS, S.A., priority 2016, dated 2020).

Legend:
[1] = test system: Experimental Autoimmune Encephalomyelitis (EAE); test: Experimental autoimmune encephalomyelitis (EAE) model, MOG35-55, daily clinical score; format: in vivo, C57BL/6 mice
Protocol: To induce chronic EAE by active immunization, C57BL/6 mice were immunized s.c. with 100 μg of myelin oligodendrocyte glycoprotein MOG35-55 emulsified in complete Freund's adjuvant (CFA) containing 4 mg/ml Mycobacterium tuberculosis H37 RA. Mice also received i.p. injections of 200 ng of pertussis toxin on days 0 and 2.
Mice were scored daily for signs of EAE according to the following clinical scoring system: 0, no clinical signs; 0.5, partial loss of tail tonicity; 1, complete loss of tail tonicity; 2, flaccid tail and abnormal gait; 3, hind leg paralysis; 4, hind leg paralysis with hind body paresis; 5, hind and fore leg paralysis; and 6, death.
Control mice were orally treated with vehicle [2% v/v Tween-80+98% HPβCD (13% w/v)] following the same regime of administration. Mice were scored daily for signs of EAE according to clinical scoring system described in Example 3.1. n=10 mice/group. […]. […] Mice were scored daily for signs of EAE, using the scores described in Example 3.1. Animals were sacrificed on day 26 postimmunization and samples were collected and processed as described below. n=10 mice/group.

[2] = test system: immune cells in spleen and lymph nodes; test: Number of immune cells in spleen and lymph nodes of EAE mice; format: in vivo, C57BL/6 mice; conditions: 0.5 mg/kg p.o., day 26 postimmunization, vs vehicle
Protocol: (§1) Mice were scored daily for signs of EAE, using the scores described in Example 3.1. Animals were sacrificed on day 26 postimmunization and samples were collected and processed as described below. n=10 mice/group.
(§2) Tissue collection and cell isolation. On day 26 postimmunization, spleen, draining lymph nodes (DLNs: cervicals, inguinals and axillaries), and spinal cord were removed. Spinal segments of the cervical and lumbar regions were prepared separately and processed for protein extraction, and histopathological analysis. Single-cell suspensions were obtained from spleen or pooled lymph nodes, the samples were homogenized and total number of cells was quantified using Neubauer chamber.
(§3) Statistical Analysis: Cell number analysis in lymph nodes and spleen: statistical differences are indicated as ***p<0.001 vs vehicle using ANOVA test. Cytokine/chemokine level analysis: statistical differences are indicated as: *p<0.05, **p<0.005, using Mann-Whitney test; unpaired t-test was used for IP-10 level analysis.

[3] = test system: IL-4, IL-6, IL-1beta, IP-10, MCP-1 in spinal cord; test: Cytokine/chemokine levels in spinal cord of EAE mice by ELISA; format: in vivo, C57BL/6 mice; conditions: 0.5 mg/kg p.o., day 26, vs vehicle
Protocol: as §1
Protein extraction and cytokine/chemokine analysis. Proteins were extracted from cervical and lumbar segments of spinal cord by homogenization (50 mg tissue/[…]) in lysis buffer (50 mM Tris-HCl, pH 7.4, 0.5 mM DTT, and 10 μg/ml proteinase inhibitors PMSF, pepstatin, and leupeptin). Samples were centrifuged (20.000×g, 15 min, 4° C.) and the supernatants were assayed for protein concentration (using Bradford method) and for cytokine/chemokine contents by using specific sandwich ELISAs for IL-4, IL-6, IL-1beta, IP-10 and MCP-1, according to manufacturer's recommendations, using the following antibodies and recombinant proteins:
as §3

[4] = test system: demyelination and inflammatory cell infiltration in spinal cord; test: Histopathological analysis of spinal cord in EAE mice (Kluver-Barrera); format: in vivo, C57BL/6 mice; conditions: 0.5 mg/kg p.o., day 26 postimmunization
Protocol: as §1, §2
Processing of samples for histopathological analysis. Cervical and lumbar spinal cord segments were divided and processed for inclusion and sectioning in paraffin. Spinal cord segments were immediately fixed with buffered 10% formalin for 48h, dehydrated and included in paraffin using standard techniques. Transversal sections (4-μm thickness) were stained with Luxol fast blue, cresyl violet, and hematoxylin following the Klüver-Barrera technique and were analyzed for the presence of areas of demyelination and cell infiltration using a light microscope (Leica, DM2000).

Human recombinant MAO-A = target: T1, Human recombinant MAO-A (Homo sapiens, UniProt P21397); test: MAO-A kynuramine fluorescence assay; format: biochemical
T1 construct: purchased Sigma Aldrich
T1 sequence (P21397 1-527): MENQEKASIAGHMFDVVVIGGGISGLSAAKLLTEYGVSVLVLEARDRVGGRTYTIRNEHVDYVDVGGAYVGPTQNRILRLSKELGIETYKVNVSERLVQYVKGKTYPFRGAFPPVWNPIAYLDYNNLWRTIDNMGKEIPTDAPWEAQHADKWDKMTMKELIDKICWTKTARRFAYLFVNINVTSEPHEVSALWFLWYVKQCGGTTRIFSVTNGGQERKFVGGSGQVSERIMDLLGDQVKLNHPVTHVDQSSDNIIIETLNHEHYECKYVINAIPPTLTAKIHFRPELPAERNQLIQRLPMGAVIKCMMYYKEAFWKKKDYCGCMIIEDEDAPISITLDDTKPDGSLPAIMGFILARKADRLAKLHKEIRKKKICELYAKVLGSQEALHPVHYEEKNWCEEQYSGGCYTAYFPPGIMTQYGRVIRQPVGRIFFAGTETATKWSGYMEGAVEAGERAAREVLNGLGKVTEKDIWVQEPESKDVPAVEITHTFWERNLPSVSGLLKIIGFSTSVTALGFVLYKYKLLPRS
Excerpt: Human recombinant monoamine oxidase proteins MAO-A and MAO-B were purchased from Sigma Aldrich. MAOs catalyze the oxidative deamination of primary, secondary and tertiary amines. In order to monitor MAO enzymatic activities and/or their inhibition rate by inhibitor(s) of interest, a fluorescence-based (inhibitor)-screening assay was set up. 3-(2-Aminophenyl)-3-oxopropanamine (kynuramine dihydrobromide, Sigma Aldrich), a non fluorescent compound was chosen as a substrate. Kynuramine is a non-specific substrate for both MAO-A and MAO-B activities. While undergoing oxidative deamination by MAO activities, kynuramine is converted into 4-hydroxyquinoline (4-HQ), a resulting fluorescent product.
The monoamine oxidase activity was estimated by measuring the conversion of kynuramine into 4-hydroxyquinoline. […]
After leaving the enzyme(s) interacting with the inhibitor, KM of kynuramine was added to each reaction for MAO-B and MAO-A assay respectively, and the reaction was left for 1 hour at 37° C. in the dark. […] The conversion of kynuramine to 4-hydroxyquinoline, was monitored by fluorescence (excitation at 320 nm, emission at 360 nm) using a microplate reader (Infinite 200, Tecan). Arbitrary units were used to measure levels of fluorescence produced in the absence and/or in the presence of inhibitor.
The IC50 values of each inhibitor were calculated with GraphPad Prism Software.

[5] = Tolerability at therapeutic doses; format: in vivo
Human recombinant LSD1 = target: T2, Human recombinant LSD1 (Homo sapiens, UniProt O60341); test: LSD1 in vitro biochemical assay (Amplex Red, di-methylated H3-K4 peptide); conditions: read-out: IC50 against LSD1
T2 construct: amino acids 158-end with N-terminal GST tag; GST (N); purchased BPS Bioscience Inc 50100
Excerpt: In order to monitor LSD1 enzymatic activity and/or its inhibition rate by a test compound, di-methylated H3-K4 peptide (Anaspec) was chosen as a substrate. The demethylase activity was estimated, under aerobic conditions, by measuring the release of H2O2 produced during the catalytic process, using the Amplex® Red hydrogen peroxide/peroxidase assay kit (Invitrogen).
Tranylcypromine (Biomol International) was used as a control for inhibition. Within the experiment, each concentration of inhibitor was tested in duplicate. After leaving the enzyme interacting with the inhibitor, KM of di-methylated H3-K4 peptide was added to each reaction and the experiment was left for 30 minutes at 37° C. in the dark. The enzymatic reactions were set up in a 50 mM sodium phosphate, pH 7.4 buffer. […] The conversion of the Amplex® Red reagent to resorufin due to the presence of H2O2 in the assay, was monitored by fluorescence (excitation at 540 nm, emission at 590 nm) using a microplate reader (Infinite 200, Tecan). […] The maximum demethylase activity of LSD1 was obtained in the absence of inhibitor and corrected for background fluorescence in the absence of LSD1. The IC50 value of each inhibitor was calculated with GraphPad Prism Software.

Compound	Effect on EAE clinical score ([1]; 0.06 and 0.180 mg/kg p.o., same scheme as Example 3.1)	Number of immune cells retained in spleen and lymph nodes [2]	IL-1 beta level in spinal cord [3]	IL-4 level in spinal cord [3]	IL-6 level in spinal cord [3]	IP-10 level in spinal cord [3]	MCP-1 level in spinal cord [3]	Inflammatory cell infiltration and demyelination areas in cervical and lumbar spinal cord [4]	Mean number of demyelination plaques in cervical and lumbar spinal cord [4]	IC50 (Human recombinant MAO-A)	Tolerability on long-term treatment ([5]; 0.5 mg/kg p.o., mice)	Effects on hematology or circulating lymphocyte counts, gastro-intestinal toxicity ([5]; at therapeutically effective doses, no method or species printed)	IC50 (Human recombinant LSD1)	Development of EAE, disease incidence and severity by daily clinical score ([1]; 0.5 mg/kg p.o., Example 4)	Development of EAE, disease incidence and severity by daily clinical score ([1]; 1 or 3 mg/kg p.o., days 12-16 and 19-23 postimmunization)	Mice displaying mild symptoms ([1]; 1 or 3 mg/kg p.o., therapeutic regime)	Mice almost completely recovered ([1]; 1 or 3 mg/kg p.o., 40 days after disease onset)	Dose at which clinical score in EAE is reduced (as low as) ([1]; p.o., tested at 1, 0.5 and 0.05 mg/kg)
Fc1ccccc1[C@@H]1C[C@H]1NC1CCNCC1 [ORY-LSD1, N-((1R,2S)-2-(2-fluorophenyl)cyclopropyl)piperidin-4-amine, reference compound]	clear tendency for improvement	–	–	–	–	–	–	–	–	–	–	–	–	–	–	–	–	–
Nc1nnc(CN[C@@H]2C[C@H]2c2ccc(OCc3ccccc3)cc2)o1 (single isomer, unassigned) [Compound 1, (−) 5-((((trans)-2-(4-(benzyloxy)phenyl)cyclopropyl)amino)methyl)-1,3,4-oxadiazol-2-amine]	–	significant increase	reduced	significantly increased	reduced	significantly reduced	significantly reduced	no inflammatory cell infiltration nor demyelination areas were observed	absent or greatly reduced demyelination	5.3 µM	well-tolerated	do not produce clinically relevant effects on hematology or circulating lymphocyte counts	0.09 µM	greatly inhibited the development of EAE	greatly inhibited the development of EAE	40-70%	30%	≤ 0.05 mg/kg
